The results in this text go back to PubChem BioAssay (NCI).

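Tested at 5 concentrations; 48 h exposure; 96-well plates; endpoints linearly interpolated, else capped at highest concentration. Here, GI50 denotes the concentration required for 50% inhibition of growth. TGI denotes the concentration required for complete inhibition of growth.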

Some test systems named below: OVCAR-4 ovarian; SK-OV-3 ovarian; SF-295 CNS; SR leukemia; M14 melanoma; HL-60(TB) leukemia; UACC-257 melanoma; IGROV1 ovarian; SNB-75 CNS.
Assay in all cases: inhibition of tumour cell growth, NCI panel, 48 h

In the case of `O=c1/c(=C/c2ccccc2[N+](=O)[O-])sc2nc3ccccc3n12`, the TGI with OVCAR-4 ovarian is above 46.4 µM; in the experiment with SK-OV-3 ovarian, above 31.6 µM; in the experiment with SF-295 CNS, 41.4 µM; in the experiment on SR leukemia, 25 µM; in the experiment on M14 melanoma it was above 46.4 µM; with HL-60(TB) leukemia it was above 46.4 µM. In addition, the TGI in the experiment on UACC-257 melanoma is above 46.4 µM; with IGROV1 ovarian, above 46.4 µM; in the experiment on SNB-75 CNS, 33.5 µM.
As for `CC1/C=C/[C@@]2(C)CCC(C(C)(C)O)C2C(O)C[C@](C)(O)/C=C/C1` (some centres not stated), the TGI with OVCAR-4 ovarian, with SK-OV-3 ovarian, in the experiment on SF-295 CNS, in the experiment on SR leukemia, with M14 melanoma and in the experiment on HL-60(TB) leukemia was above 100 µM each time. Also, the TGI in the experiment with UACC-257 melanoma, in the experiment on IGROV1 ovarian and with SNB-75 CNS was above 100 µM in each case.
For the compound `C/C=C(/I)CBr`, the TGI in the experiment on OVCAR-4 ovarian was found to be 49.3 µM; in the experiment with SK-OV-3 ovarian, 64.7 µM; in the experiment with M14 melanoma, 28.7 µM; with HL-60(TB) leukemia, 20.5 µM; with IGROV1 ovarian, 33.7 µM.
Consider `COc1ccc(C(=O)O[C@H]2[C@@H]3C=CO[C@@H](OC4OC(CO)C(O)C(O)C4O)[C@@H]3[C@@]3(CO)O[C@@H]23)cc1O` (some centres not stated), for which the TGI in the experiment on OVCAR-4 ovarian, in the experiment with SK-OV-3 ovarian, in the experiment with SF-295 CNS, in the experiment with M14 melanoma, in the experiment with HL-60(TB) leukemia and in the experiment with UACC-257 melanoma was above 100 µM in each case. The TGI in the experiment with IGROV1 ovarian and with SNB-75 CNS was above 100 µM in each case.
With `COc1ccc(NC(=O)CC2SC(=Nc3ccccc3C)NC2=O)c([N+](=O)[O-])c1` (configuration not stated), the TGI in the experiment with OVCAR-4 ovarian, in the experiment on SK-OV-3 ovarian, in the experiment with SF-295 CNS, in the experiment with SR leukemia, in the experiment on M14 melanoma and in the experiment with HL-60(TB) leukemia was above 100 µM in each case. Further, the TGI with UACC-257 melanoma, in the experiment on IGROV1 ovarian and in the experiment with SNB-75 CNS was above 100 µM each time.
Turning to `CC(Oc1ccc2c(-c3ccccc3)cc(=O)oc2c1)C(=O)O` (configuration not stated), the TGI in the experiment on OVCAR-4 ovarian, in the experiment on SK-OV-3 ovarian, with SF-295 CNS, with SR leukemia, with M14 melanoma and in the experiment with HL-60(TB) leukemia was above 100 µM in each case. In addition, the TGI in the experiment on UACC-257 melanoma, in the experiment on IGROV1 ovarian and with SNB-75 CNS was above 100 µM throughout.
Take `CC1=C[C@H]2c3c([nH]c4ccccc34)C(c3c[nH]c4ccccc34)[C@H]2CC1` (some centres not stated): the TGI came out at 26.6 µM with SK-OV-3 ovarian; 19.2 µM in the experiment with M14 melanoma; 17.6 µM with HL-60(TB) leukemia; 27.9 µM in the experiment with UACC-257 melanoma; 22.4 µM with IGROV1 ovarian; 19 µM with SNB-75 CNS.
Take `NS(=O)(=O)c1ccc(-n2nc3c(c2-c2ccc(Cl)cc2)Cc2ccccc2-3)cc1`: the GI50 with OVCAR-4 ovarian is 15 µM; in the experiment on SK-OV-3 ovarian it was 77.1 µM; in the experiment on SF-295 CNS it was 29.8 µM; in the experiment with SR leukemia, 5.82 µM; in the experiment with M14 melanoma, 13.1 µM; in the experiment with UACC-257 melanoma it was 20.6 µM. Moreover, the GI50 in the experiment with IGROV1 ovarian is 2.58 µM; in the experiment on SNB-75 CNS, 14.6 µM. The TGI is 30.3 µM with OVCAR-4 ovarian; above 100 µM in the experiment with SK-OV-3 ovarian; 82.3 µM with SF-295 CNS; 21.3 µM in the experiment on SR leukemia; 31.5 µM with M14 melanoma; 39.5 µM in the experiment on UACC-257 melanoma. Also, the TGI was 14.2 µM in the experiment with IGROV1 ovarian and 30.5 µM with SNB-75 CNS.
Take `NC1=C(NC(=O)Cc2ccccc2F)C(=O)c2ccccc2C1=O`: the TGI in the experiment on OVCAR-4 ovarian, with SF-295 CNS, with M14 melanoma, with HL-60(TB) leukemia, with UACC-257 melanoma and in the experiment with IGROV1 ovarian was above 100 µM each time. For the same compound, in the experiment with SNB-75 CNS, the TGI was 62.6 µM.
Regarding `CCOC(=O)C(=O)Nc1ccccc1C`, the TGI with OVCAR-4 ovarian, in the experiment on SK-OV-3 ovarian, in the experiment on M14 melanoma, in the experiment with HL-60(TB) leukemia, in the experiment on IGROV1 ovarian and in the experiment on SNB-75 CNS was above 100 µM each time.
For `C#Cc1cccc(N2C(=O)c3c(c(-c4ccccc4)c(-c4ccc(Cc5ccc(-c6c(-c7ccccc7)c7c(c(-c8ccccc8)c6-c6ccccc6)C(=O)N(c6cccc(C#C)c6)C7=O)cc5)cc4)c(-c4ccccc4)c3-c3ccccc3)C2=O)c1`, the TGI in the experiment with OVCAR-4 ovarian is above 100 µM; in the experiment with SF-295 CNS it was above 100 µM; in the experiment on M14 melanoma, 41.5 µM; with HL-60(TB) leukemia, above 100 µM; in the experiment with UACC-257 melanoma, above 100 µM; in the experiment on IGROV1 ovarian it was 45.2 µM. Besides, the TGI in the experiment on SNB-75 CNS was 79.9 µM.
Turning to `O=S(=O)(NC1=NCCN1C(=S)SN1CCn2c1nsc2=S)c1cccc2ccccc12`, the GI50 with OVCAR-4 ovarian was 29.2 µM; in the experiment on SK-OV-3 ovarian it was 31.1 µM; in the experiment with SF-295 CNS it was 18.4 µM; in the experiment with SR leukemia, 10.2 µM; in the experiment on M14 melanoma it was 24.6 µM; in the experiment with HL-60(TB) leukemia, 30.9 µM. In addition, the GI50 in the experiment with UACC-257 melanoma was 24.3 µM; in the experiment on IGROV1 ovarian, 10 µM; in the experiment with SNB-75 CNS, 24.3 µM. Moreover, the TGI with OVCAR-4 ovarian was above 100 µM; with SK-OV-3 ovarian, 91.5 µM; in the experiment on SF-295 CNS, 71.1 µM; with SR leukemia, 45.6 µM; with M14 melanoma, above 100 µM; with HL-60(TB) leukemia, 99.3 µM. Besides, the TGI in the experiment with UACC-257 melanoma is 97.2 µM; with IGROV1 ovarian it was 32.6 µM; in the experiment with SNB-75 CNS, above 100 µM.
With `CCOC(=O)C1=C(Nc2ccc(Cl)cc2Cl)OCC1=O`, the TGI in the experiment with OVCAR-4 ovarian, with SK-OV-3 ovarian, with SF-295 CNS, in the experiment with SR leukemia, in the experiment on M14 melanoma and with HL-60(TB) leukemia was above 100 µM each time. Besides, the TGI in the experiment on UACC-257 melanoma, with IGROV1 ovarian and in the experiment with SNB-75 CNS was above 100 µM in each case.
As for `CCCNC(=O)C1C(=O)C(=O)N(CCC)C1=O` (configuration not stated), the TGI with OVCAR-4 ovarian, in the experiment with SK-OV-3 ovarian, with M14 melanoma, in the experiment with UACC-257 melanoma, with IGROV1 ovarian and in the experiment on SNB-75 CNS was above 100 µM throughout.
On to `COc1ccc(NC(=O)/C(=C/c2ccccc2)C(C)=O)cc1`, for which the TGI was 24.6 µM in the experiment on OVCAR-4 ovarian; 95.1 µM in the experiment with SK-OV-3 ovarian; 28.6 µM with SF-295 CNS; 27.1 µM with M14 melanoma; 17.7 µM with HL-60(TB) leukemia; 29.3 µM with UACC-257 melanoma. In addition, the TGI in the experiment on IGROV1 ovarian amounted to 38.6 µM; in the experiment with SNB-75 CNS it was 21 µM.
